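Briefly, cells in 96-well plates were exposed to five compound concentrations for 48 h, and endpoints were estimated by linear interpolation. TGI marks complete inhibition of growth.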
What was measured:
Assay in all cases: DTP human tumour cell line panel, 48 h
[1] = test system: CAKI-1 renal
[2] = test system: TK-10 renal
[3] = test system: 786-0 renal
[4] = test system: UACC-257 melanoma
[5] = test system: SK-OV-3 ovarian
[6] = test system: HOP-62 NSCLC
[7] = test system: NCI-H23 lung
[8] = test system: SN12C renal
[9] = test system: MOLT-4 leukemia
[10] = test system: HL-60(TB) leukemia
[11] = test system: HCT-116 colon

| SMILES | TGI [1] [µM] | TGI [2] [µM] | TGI [3] [µM] | TGI [4] [µM] | TGI [5] [µM] | TGI [6] [µM] | TGI [7] [µM] | TGI [8] [µM] | TGI [9] [µM] | TGI [10] [µM] | TGI [11] [µM] |
| --- | --- | --- | --- | --- | --- | --- | --- | --- | --- | --- | --- |
| CNc1ccc(C(=O)CC(O)CCC(C)C2OC(=O)CC(O)CC(=O)CC(O)CC(O)CC(O)CC(O)CC3(O)CC(O)C(C(=O)NCCN(C)C)C(CC(OC4OC(C)C(O)C(NC(=O)CN5CCN(C)CC5)C4O)/C=C/C=C/C=C/C=C\C=C/C=C/C=C/C2C)O3)cc1 (configuration not stated) | > 100 | > 100 | > 100 | 71 | > 100 | > 100 | > 100 | > 100 | > 100 | > 100 |  |
| CC(C)(C)NC(NC(C)(C)C)=C(/C=C(/Cl)[N+](=O)[O-])[N+](=O)[O-] | > 100 | > 100 | > 100 | > 100 | > 100 | > 100 | > 100 | > 100 | > 100 | 53.5 | > 100 |
| CC(C)CC1C(=O)NCCC(NC(=O)C(Cc2ccc(OC(C)(C)C)cc2)NC(=O)OC(C)(C)C)C(=O)NC(Cc2ccccc2)C(=O)NC(Cc2ccccc2)NC1=O (configuration not stated) | > 100 | 33.8 | 4.92 | 26.2 | 45.9 | 37.7 | 33.7 | 39.8 | 3.48 | 26.9 | 17.4 |
| CN(C(=O)C1=CCC2(CC1)OCCO2)c1ccccc1OS(=O)(=O)C(F)(F)F | > 100 |  | > 100 | > 100 | > 100 | > 100 | > 100 | > 100 | > 100 | > 100 | > 100 |
| COc1cccc2c1OC(c1ccc(Cl)cc1)C([N+](=O)[O-])=C2 (configuration not stated) | 10.7 | 16 | 3.63 | 8.39 | 13.6 | 4.89 | 21.2 | 8.41 | 8.58 | > 100 | 2.67 |
| COC(=O)CC(C#N)(OP1(=O)OC(c2ccccc2)C(C)N1C)c1ccccc1 (configuration not stated) | 69.3 | > 100 | 83 | 46.4 | > 100 | > 100 | 97.9 | 77 | 59.2 | 58 | 52.4 |
| CN=c1nc2sc3c(c2c(NC(=S)NC)s1)CCCC3 | > 100 | > 100 | > 100 | > 100 | > 100 | > 100 | > 100 | > 100 | > 100 | > 100 | > 100 |
| COc1ccc(N2C(=O)/C(=C(\C)c3cc4ccccc4oc3=O)N=C2c2cc([N+](=O)[O-])ccc2Cl)cc1 | > 100 |  |  | > 100 | > 100 | > 100 | > 100 | > 100 | > 100 | 70.8 | > 100 |
| CC(C)C(=O)[C@@]1(C)SC[C@H]2CCN=C21 | > 100 | > 100 | > 100 | > 100 | > 100 |  | > 100 | > 100 | > 100 | > 100 | > 100 |
| Nc1ccc2c(c1)N(C(=O)c1cc3cc(NC(=O)c4cc5ccccc5o4)ccc3[nH]1)CC2CCl (configuration not stated) | 12.9 | 2.07 | > 37.9 |  | > 33.4 | 0.804 | 0.161 | > 46.4 | > 100 | > 100 | > 32.2 |
| CCCCc1c(N(C)C)c(OC(C)=O)c(-c2cn(C)c3ccccc23)oc1=O | > 100 | > 100 | > 100 | 59.8 | > 100 | 55.7 | 56.7 | 59.8 | > 100 | 51.1 | 40.9 |
| CC1=CC(C)C/C=C/C2C3OC3(C)C(C)C3C(Cc4c[nH]c5ccccc45)NC(=O)C23C(=O)C=CC(=O)C1O (configuration not stated) | 2.94 | 3.39 | 10.8 | 16.4 | 25.2 | 26.7 | 28.5 | 30.7 | 5.2 | 5.55 | 8.4 |
| Cc1cc(C)n2nc3nc(N)c(C#N)c(-c4ccccc4)c3c2n1 | > 100 | > 100 | > 100 | > 100 | > 100 | > 100 | > 100 | > 100 | > 100 | > 100 | > 100 |
| CC(C)(C)[Si](OC1CC(n2cnc3c(N)ncnc32)OC1CO)(c1ccccc1)c1ccccc1 (configuration not stated) |  | 53.4 |  | > 100 | 32.7 | 45.3 | 28 | 43.3 | > 100 | > 100 | 31.3 |
| CCCCN(CCCC)CC(O)c1cc(-c2ccc(C(F)(F)F)cc2)nc(-c2ccc(C(F)(F)F)cc2)c1 (configuration not stated) | > 100 | > 100 | > 100 | > 100 | > 100 | > 100 | > 100 | > 100 | > 100 | > 100 | > 100 |
| O=C(O)c1ccc(Nc2c3ccccc3nc3ccccc23)cc1 | > 100 |  |  | > 100 | > 100 | > 100 | > 100 | > 100 | > 83.9 | > 100 | > 100 |
| OC1(C(F)(F)F)OCCN=C1C(F)(F)F (configuration not stated) | > 100 | > 100 | > 100 | > 100 | > 100 | > 100 | > 100 | > 100 | > 100 | > 100 | > 100 |
| OC1[C@@H]2[C@@H](O)[C@H](O)[C@@H](O)N2C[C@@H]1O (some centres not stated) | > 100 | > 100 | > 100 | > 100 | > 100 | > 100 | > 100 | > 100 | > 100 |  | > 100 |
| COc1cc(C2SCC(=O)N2c2ccccn2)cc(OC)c1OC (configuration not stated) | > 100 | > 100 | > 100 | > 100 | > 100 |  | > 100 | > 100 | > 100 | > 100 | > 100 |
